Earlier results, collected in US4431807A, “4-Methyl-5-(unsubstituted and substituted phenoxy)-6-methoxy-8-(aminoalkylamino)quinolines” (priority 1981, dated 1984).
Like-named read-outs stand apart in the source and are kept apart here.

Columns and labels:
Plasmodium berghei = conditions: cited from earlier work
Plasmodium cynomolgi = conditions: cited from earlier work; for Radical curative activity relative to primaquine: prior art compounds

SMILES | Δ MST (Plasmodium berghei; 80 mg/kg, 5 mice, Table I) [days] | Δ MST (Plasmodium berghei; 160 mg/kg, 5 mice, Table I) [days] | Cures (Plasmodium berghei; 320 mg/kg, 5 mice, Table I) [C] | Cures (Plasmodium berghei; 640 mg/kg, 5 mice, Table I) [C] | Suppressive activity (Plasmodium berghei; 320 and 640 mg/kg) | Suppressive activity relative to mefloquine (Plasmodium berghei; prior art compound) | Radical curative activity relative to primaquine (Plasmodium cynomolgi) | Δ MST (Plasmodium berghei; 320 mg/kg, 5 mice, Table I) [days] | Toxic deaths (Plasmodium berghei; 640 mg/kg, 5 mice, Table I) [T] | Only curative (toxic) dose in suppressive test (Plasmodium berghei; curative only at the toxic dose) [mg/kg] | Suppressive activity (Plasmodium berghei; non-toxic dose levels, prior art comparison) | Radical curative activity (Plasmodium cynomolgi; 0.316 mg/kg, prior art comparison) | % cures (radical curative) (Plasmodium cynomolgi; 1.0 mg/kg) [%]
COc1cc(NC(C)CCCN)c2ncccc2c1Oc1ccc(F)cc1 (stereo not shown) [5-(4-Fluorophenoxy)Primaquine, 5-(4-fluorophenoxy)primaquine] | 7.0 | 9 | 5 | 5 | active and non-toxic | distinctly inferior | no more active than primaquine |  |  |  |  |  | 
COc1cc(NC(C)CCCN)c2nccc(C)c2c1 (stereo not shown) [4-Methylprimaquine, 4-methylprimaquine] |  | 9 |  | 3 |  |  | comparable to primaquine and essentially equivalent in efficacy | 10 | 1 | 640 | very weak activity | inactive | 100
